Results reported in publication PMC9546217, “Exploring novel nitrofuranyl sulfonohydrazides as anti‐Leishmania and anti‐cancer agents: Synthesis, in vitro efficacy and hit identification” (Chemical Biology & Drug Design, 2022).
Where two headings read alike, the source gives them in different places.

Columns and labels:
[1] = test system: L. major strain IR‐173 amastigotes; assay: Anti-amastigote assay (intramacrophage, THP-1 host, resazurin); format: cell-based; settings: for IC50: read-out: Antileishmanial activity, IC50 ± SD, Amastigote; for Specificity index SpI1: L. major IR‐173: IC50 promastigote/IC50 amastigote; for Selectivity index SI2: L. major: IC50 THP‐1/IC50 amastigote
Protocol: (§1) The activities of synthesized compounds against the intramacrophage parasites of the three Leishmania strains were evaluated using a modified, resazurin‐based method (Jain et al., [2012]; Njanpa et al., [2021]). Suspension cultures of human acute monocytic leukemia (THP‐1) cells were maintained in RPMI‐1640 medium (Sigma Aldrich) supplemented with 10% FBS and 1% penicillin–streptomycin, at 37°C and 5% CO2 in a humidified atmosphere. Duplicate 96‐well plates (for respective anti‐amastigote and cytotoxicity assays) were seeded with 200 μl of a 2.5 × 10^5 cells/ml suspension treated with 25 ng/ml phorbol 12‐myristate 13‐acetate (PMA), followed by 48‐h incubation to promote differentiation into adherent macrophages.
(§2) For the anti‐amastigote assay, differentiated plates were carefully washed with PBS, followed by the addition of 200 μl of stationary phase promastigotes in RPMI 1640 medium with 2% FBS. An MOI of 30:1 was used for all three Leishmania strains. The parasite‐treated plates were incubated for 24 h at 32°C (L. major) or 37°C (L. donovani) and 5% CO2 to promote infection of the macrophages. […] Blanks were represented by growth medium without cells, as well as parasite‐free THP‐1 cells. The treated plates were incubated for 72 h.
(§3) After incubation, the plates were gently washed three times with PBS to remove any remaining extracellular parasites. The wells were then treated with 20 μl of 0.05% sodium dodecyl sulfate in PBS for 30 s to lyse the host macrophages. Lysis was terminated by adding 180 μl promastigote growth medium with 10% FBS. To initiate the resazurin assay, 10 μl of resazurin solution (0.025% in PBS) was added to all wells and the plates were incubated for 24 h at 32°C (L. major) or 37°C (L. donovani) and 5% CO2. Absorbance measurements, calculations, and IC50 determinations were performed as described for the antipromastigote assay (Supinfo S1).

[2] = test system: L. donovani strain 1S amastigotes; assay: as above; format: cell-based; settings: for IC50: L. donovani 1S, read-out: 1S IC50 ± SD, Amastigote; for Selectivity index SI4: L. donovani 1S: IC50 THP‐1/IC50 amastigote; for Selectivity index SI3: L. donovani 1S: IC50 Vero/IC50 amastigote; for Specificity index SpI2: L. donovani 1S: IC50 promastigote/IC50 amastigote
Protocol: as §1, §2, §3

[3] = test system: L. donovani strain 9515 amastigotes; assay: as above; format: cell-based; settings: for IC50: L. donovani 9515, read-out: 9515 IC50 ± SD, Amastigote; for Selectivity index SI6: L. donovani 9515: IC50 THP‐1/IC50 amastigote; for Selectivity index SI5: L. donovani 9515: IC50 Vero/IC50 amastigote; for Specificity index SpI3: L. donovani 9515: IC50 promastigote/IC50 amastigote
Protocol: as §1, §2, §3

[4] = test system: Clone 15 HL‐60 promyelocytic leukemia cells; assay: Anticancer assay (resazurin); format: cell-based, human; settings: for IC50: read-out: Anticancer activity, IC50 ± SD, Clone 15 HL‐60; for Preliminary screening, growth inhibition, Clone 15 HL‐60: cutoff 50% growth inhibition at 10 μM; for Selectivity Index SI1 (anticancer): IC50 Vero (Table 2)/IC50 Clone 15 HL‐60
Protocol: (§4) The anticancer activities of synthesized compounds were evaluated using a resazurin‐based assay (Czekanska, [2011]). Accordingly, a screening method similar to that of the cytotoxicity assay was used to screen for anticancer activity, using human melanoma (A375), promyelocytic leukemia (Clone 15 HL‐60), lung cancer (A549), and breast cancer (MCF7) cells. The culture and assay methods are provided in the Supinfo S1.
(§5) The potential anticancer activities of synthesized compounds were screened using the resazurin assay. ^5 Breast adenocarcinoma (MCF7, ATCC® HTB-22™) and human melanoma (A375, ATCC® CRL-1619™) cells were cultured in Hyclone Dulbecco's modified Eagle’s medium with high glucose (Separations) supplemented with 10 % fetal bovine serum (FBS) (Thermofisher Scientific) and 1 % L-glutamine, penicillin-streptomycin and non-essential amino acids (Lonza). Human lung carcinoma (A549, ATCC®, CCL-185™) cells were cultured in Ham’s F12K medium supplemented with 10% FBS and 1% L-glutamine, penicillin-streptomycin and non-essential amino acids. Human promyelocytic leukemia (Clone 15 HL-60, ATCC® CRL-1946™) cells were cultured in RPMI-1640 medium (Sigma Aldrich) supplemented with 10% FBS and 1% penicillin-streptomycin. The cell lines were maintained in a humidified atmosphere at 37 °C and 5% CO2.
(§6) For the resazurin assay, 96 well plates were prepared with 100 μL of 100 000 cells/mL MCF7 cell suspension, 100 μL of 50 000 cells/mL A375 cell suspension, 100 μL of 25 000 cells/mL A549 cell suspension, or 50 μL of 50 000 cells/mL HL-60 cell suspension. The MCF7, A375 and A549 cell plates were incubated for 24 hours to allow adherence of the cells to the plate surface, after which the growth medium is replaced with 100 μL medium containing compounds. […] The cell lines were treated with: (i) parthenolide (Sigma Aldrich) (positive control); (ii) growth medium and solvent (negative control to compensate for possible solvent effects); (iii) growth medium and experimental compound solutions. […] Blanks contained growth medium without cells. The treated plates were incubated for 48 hours.
(§7) To initiate the resazurin assay, 50 μL of sterile-filtered resazurin sodium salt (Sigma Aldrich) solution (0.01 % in PBS) was added and the plates incubated for 2 hours (MCF7, A375 and A549 cells) or 24 hours (HL-60 cells). Absorbance was measured at 570 and 600 nm using the Thermofisher Scientific GO Multiscan plate reader. Data analysis was performed for each biological replicate using SkanIt 4.0 Research Edition software. Further data analysis, calculations and IC50 determinations were identical to that of the antileishmanial and cytotoxicity assays.
(§8) For the final IC50 of each compound, the mean IC50 of the biological replicates were calculated with standard deviation (SD).

A375 melanoma cells = assay: Anticancer assay (resazurin); format: cell-based, human; settings: for IC50: n = 3, read-out: Anticancer activity, IC50 ± SD, A375
Protocol: as §4, §5, §6, §7, §8

[5] = Basal cytotoxicity, resazurin assay; settings: African green monkey
Protocol: The assay method is available in the Supinfo S1.
African green monkey kidney epithelial (Vero) cells (Cellonex, South Africa) were cultured and the basal cytotoxicity of the synthesized compounds with antileishmanial and/or anticancer activity was evaluated using the resazurin assay, as described in Mangwegape et al. ^4 Emetine served as the standard cytotoxic drug. Further use of reference drugs, controls, data analysis, calculations and IC50 determinations were identical to that of the antileishmanial assay.

[6] = Cytotoxicity on differentiated host THP-1 macrophages, resazurin assay; format: cell-based, human; settings: human, PMA-differentiated THP-1 macrophages, read-out: Cytotoxicity, IC50 ± SD, THP‐1
Protocol: Duplicate 96‐well plates (for respective anti‐amastigote and cytotoxicity assays) were seeded with 200 μl of a 2.5 × 10^5 cells/ml suspension treated with 25 ng/ml phorbol 12‐myristate 13‐acetate (PMA), followed by 48‐h incubation to promote differentiation into adherent macrophages.
Cytotoxicity of the compounds on the differentiated host THP-1 cells were also evaluated. As mentioned, duplicate plates of differentiated THP-1 cells were prepared during the anti-amastigote assay. These plates were incubated for 72 hours to differentiate, instead of replacing the growth medium with parasite-containing medium after 48 hours. […] Blanks were growth medium without cells. The treated plates were incubated for 72 hours, followed by the addition of 50 μL of resazurin solution (0.01% in PBS) to each well and 24-hour incubation.

[7] = Leishmania major, THP-1, L. major IR‐173

Compound	IC50 [1, 7]	IC50 ([2]; Leishmania donovani, THP-1)	IC50 ([3]; Leishmania donovani, THP-1)	IC50 ([4]; Homo sapiens, HL-60, n = 3)	Preliminary screening, growth inhibition, Clone 15 HL‐60 [4]	IC50 (A375 melanoma cells; Homo sapiens, A-375)	IC50 ([5]; Vero cells (kidney epithelial))	Selectivity Index SI1 (anticancer) [4]	IC50 ([4]; n = 3)	IC50 at 72 h [6]	Selectivity index SI4 [2]	Selectivity index SI3 [2]	Specificity index SpI2 [2]	Selectivity index SI6 [3]	Selectivity index SI5 [3]	Specificity index SpI3 [3]	also measured
Cc1ccc(S(=O)(=O)N/N=C/c2ccc([N+](=O)[O-])o2)cc1 [2c, (E)-4-Methyl-N'-[(5-nitrofuran-2-yl)methylene]benzenesulfonohydrazide]	> 10 µM	> 10 µM	> 10 µM	> 10 µM	qualified	> 10 µM	–	–	–	–	–	–	–	–	–	–	–
CC(C)c1ccc(S(=O)(=O)N/N=C/c2ccc([N+](=O)[O-])o2)cc1 [2d, (E)-4-Isopropyl-N'-[(5-nitrofuran-2-yl)methylene]benzenesulfonohydrazide]	< 10 µM	> 10 µM	> 10 µM	< 10 µM	–	> 10 µM	22.2 ± 0.8 µM	3	7.85 ± 0.38 µM	93.1 ± 3.51 µM	–	–	–	–	–	–	Specificity index SpI1 [1]: 0.57; IC50 ([1]; L. major IR‐173): 8.3 ± 0.78 µM; Selectivity index SI2 [1]: 11
CC(C)(C)c1ccc(S(=O)(=O)N/N=C/c2ccc([N+](=O)[O-])o2)cc1 [2f, (E)-4-(tert-Butyl)-N'-[(5-nitrofuran-2-yl)methylene]benzenesulfonohydrazide]	> 10 µM	6.36 µM	9.62 ± 1.15 µM	–	–	> 10 µM	29.2 ± 5.86 µM	6	–	84.6 ± 2.16 µM	13	5	0.83	9	3	0.36	–
O=[N+]([O-])c1ccc(/C=N/NS(=O)(=O)c2ccc(-c3ccccc3)cc2)o1 [2h, (E)-N'-[(5-Nitrofuran-2-yl)methylene]-(1,1'-biphenyl)-4-sulfonohydrazide]	> 10 µM	2.94 ± 0.3 µM	6.29 ± 0.62 µM	–	qualified	8.05 ± 0.57 µM	16.4 ± 5.8 µM	17	–	50.4 ± 2.26 µM	17	6	0.49	8	3	0.24	Selectivity index SI2 (anticancer) (A375 melanoma cells; IC50 Vero (Table 2)/IC50 A375): 2; Preliminary screening, growth inhibition, A375 (A375 melanoma cells; cutoff 50% growth inhibition at 10 μM): qualified
O=[N+]([O-])c1ccc(/C=N/NS(=O)(=O)c2cccc3c2OCCO3)o1 [2l, (E)-N'-[(5-Nitrofuran-2-yl)methylene]-2,3-dihydrobenzo[b][1,4]dioxine-5-sulfonohydrazide]	> 10 µM	6.36 µM	7.85 ± 0.21 µM	> 10 µM	–	> 10 µM	41.2 ± 3.3 µM	–	–	> 100 µM	> 16	6	1.45	> 13	5	0.92	–
O=Cc1ccc([N+](=O)[O-])o1 [NFA, 5‐nitro‐2‐furaldehyde, reference compound]	8.35 ± 0.89 µM	> 10 µM	8.56 ± 0.65 µM	< 10 µM	–	> 10 µM	23.2 ± 2.62 µM	2	9.45 ± 0.61 µM	–	–	–	–	9	3	–	Specificity index SpI1 [1]: 0.87; Selectivity index SI2 [1]: 10; Selectivity index SI1 ([1]; L. major: IC50 Vero/IC50 amastigote): 3
O=C1CN(/N=C/c2ccc([N+](=O)[O-])o2)C(=O)N1 [NFT, nitrofurantoin, reference compound]	> 10 µM	> 10 µM	8.56 ± 1.95 µM	> 10 µM	–	> 10 µM	–	–	–	> 100 µM	–	–	–	–	–	–	IC50 [5]: > 100 µM
O=C(N/N=C/c1ccc([N+](=O)[O-])o1)c1ccc(O)cc1 [NFX, Nifuroxazide, reference compound]	> 10 µM	> 10 µM	–	8.97 ± 0.47 µM	–	> 10 µM	–	> 11	–	> 100 µM	–	–	–	> 14	> 14	–	IC50 [5]: > 100 µM
(E)-2,4,6-Trimethyl-N'-[(5-nitrofuran-2-yl)methylene]benzenesulfonohydrazide [2e]	–	–	–	–	qualified	–	–	–	> 10 µM	–	–	–	–	> 16	6	0.65	IC50 ([1]; L. major IR‐173): > 10 µM; IC50 [2]: > 10 µM; IC50 [3]: 6.14 ± 0.83 µM; IC50 (A375 melanoma cells): > 10 µM
